Laboratory results published in patent US7429473B2, “Diacylglycerol acyltransferase genes, proteins, and uses thereof” (Michigan State University, priority 2003, dated 2008).

Tested on: Euonymus alata diacylglycerol acetyltransferase (AcDAGAT), native enzyme activity in cell free homogenate of endosperm plus embryo
Experiment: AcDAGAT assay with [1-14C]acetyl-CoA in cell free homogenate (CFH) of developing Euonymus alata seeds
Assay type: biochemical
Procedure: Characterization of acyltransferase activity by in vitro assays. Acyltransferase activity was assayed by incubating [^14C]acetyl-CoA with cell free extracts from developing Euonymus alata seeds and exogenous 1,2-diacylglycerol (DAG). Total lipids were extracted, radioactivity assayed, then the amount of label in the 1,2-diacyl-3-acetin fraction determined by TLC. There was a very high (greater than about 20-fold), largely soluble acetyl-CoA hydrolase activity that competed with the transferase for substrate.
All procedures were carried out on ice or at 4° C. Frozen embryo and endosperm tissue was added to two volumes of chilled buffer containing 0.3 M sucrose, 10 mM NaF, 5 mM MgCl2, 2 mM dithiothreitol, 1 mM EDTA and 40 mM Hepes -NaOH (pH 7.4), homogenized, and filtered through two layers of Miracloth. The residue was rehomogenized in two more volumes of buffer and filtered. The filtrates were combined and constitute the cell free homogenate (CFH). The CFH was frozen and stored at −70° C. until used and typically contained 12-17 mg protein/ml. Protein concentrations were estimated using the Bio-Rad protein assay, which is based on the Bradford method (1976), using bovine serum albumin as the standard.
The standard (Ac)DAGAT assay contained [1-^14C]acetyl-CoA (100 μM, 200,000 d.p.m.) plus 140 μl of homogenization buffer in a total volume of 200 μl. 1,2-dioleoyl-sn-glycerol (50 μg, 0.4 mM) was added as 1 μl of ethanol solution. The assay was initiated by adding 20 μl of CFH. The reaction was run at room temperature (25° C.) for 1S min and terminated by the addition of hot isopropanol (1 ml). Lipids were extracted with hexane and isopropanol as described by Hara and Radin (1978). The [^14C]lipid residue was dissolved in hexane and an aliquot assayed for radioactivity by liquid scintillation counting. The standard long-chain DAGAT assay contained 20 μM [1-^14C]palmitoyl-CoA and 20-40 μl of CFH and was run for 30 minutes: all other aspects were as for acetyl DAGAT assays.
Incubation of cell free homogenates (CFH) from developing Euonymus alata endosperm plus embryo tissues with [^14C]acetyl-CoA produced labeled lipids. […] Long-chain TAG elutes ahead of Ac-TAG in this solvent system. When this labeled band was recovered and analyzed by C 18 reversed-phase TLC, the radioactivity migrated with the mass bands corresponding to the major Ac-TAG molecular species, namely C16/C18 and C18/C18. When a unique exogenous diacylglycerol, 1,2-dihexanoyl-sn-glycerol, was added to the assays, a novel band appeared that co-chromatographed with the synthetic 3-acetyl-1,2-dihexanoin standard in both normal and reverse phase TLC systems. The migration of the standard was confirmed by GC analysis of recovered fractions from the TLC plates. […]

Compound	Km (Lineweaver-Burke reciprocal plot, CFH, 25° C.) [µM]	Vmax (estimate from acetyl-CoA concentration curve) (acetyl-CoA concentration curve, cell free extracts of developing seeds)	Vmax (acetyl-CoA varied, Lineweaver-Burke reciprocal plot, CFH) [nmoles/min/gfw]	average enhancement of AcDAGAT activity by exogenous sn-1,2-diolein (0.1-1.2 mM sn-1,2-diolein added, endogenous DAG present) [%]
CC(=O)SCCNC(=O)CCNC(=O)[C@H](O)C(C)(C)COP(=O)(O)OP(=O)(O)OC[C@H]1O[C@@H](n2cnc3c(N)ncnc32)[C@H](O)[C@@H]1OP(=O)(O)O [acetyl-CoA]	100	120 nmoles/hour/gram fresh weight seed tissue	2.5	
CCCCCCCC/C=C\CCCCCCCC(=O)OC[C@H](CO)OC(=O)CCCCCCC/C=C\CCCCCCCC [sn-1,2-diolein, 1,2-dioleoyl-sn-glycerol]				30
